Source: patent US7531646B2, “β-D-ribosidase activity indicators with a chromogenic substrate” (priority 2001, dated 2009)
Where a name gives a salt, the structure may show the parent alone.

Assays:
Aeromonas sobria = assay: Substrate hydrolysis on Columbia agar; assay type: cell-based; conditions: Aeromonas sobria NCTC 11215; 300 mg/l; 18 hours
Enterococcus mundtii = assay: Substrate hydrolysis on Columbia agar; assay type: cell-based; conditions: Enterococcus mundtii NCTC 12363; 300 mg/l; 18 hours
A. calcoaceticus = assay: Substrate hydrolysis on Columbia agar; assay type: cell-based; conditions: A. calcoaceticus ATCC 7844; 300 mg/l; 18 hours
K. oxytoca = assay: Substrate hydrolysis on Columbia agar; assay type: cell-based; conditions: 300 mg/l, 18 hours
P. aeruginosa = assay: Substrate hydrolysis on Columbia agar; assay type: cell-based; conditions: 300 mg/l, 18 hours
C. diversus = assay: Substrate hydrolysis on Columbia agar; assay type: cell-based; conditions: 300 mg/l, 18 hours
Enterococcus durans = assay: Substrate hydrolysis on Columbia agar; assay type: cell-based; conditions: Enterococcus durans NCTC 8307; 300 mg/l; 18 hours
Gram positive bacteria = assay: Substrate hydrolysis on Columbia agar, summary of screen; assay type: cell-based; conditions: for Gram positive bacteria tested that hydrolysed the substrate: of 74 Gram positive bacteria tested, 300 mg/l, 18 hours
Vibrio metschnikovii = assay: Substrate hydrolysis on Columbia agar; assay type: cell-based; conditions: Vibrio metschnikovii NCTC 8443; 300 mg/l; 18 hours
A. lwoffii = assay: Substrate hydrolysis on Columbia agar; assay type: cell-based; conditions: A. lwoffii ATCC 15309; 300 mg/l; 18 hours
Salmonella typhi = assay: Substrate hydrolysis on Columbia agar; assay type: cell-based; conditions: Salmonella typhi NCTC 8385; 300 mg/l; 18 hours
M. morganii = assay: Substrate hydrolysis on Columbia agar; assay type: cell-based; conditions: 300 mg/l, 18 hours
Bacillus licusniforms = assay: Substrate hydrolysis on Columbia agar; assay type: cell-based; conditions: Bacillus licusniforms NCIMB 9375; 300 mg/l; 18 hours
E. coli 0157 = assay: Substrate hydrolysis on Columbia agar; assay type: cell-based; conditions: 300 mg/l, 18 hours
Vibrio cholerae = assay: Substrate hydrolysis on Columbia agar; assay type: cell-based; conditions: 300 mg/l, 18 hours
Streptococcus oralis = assay: Substrate hydrolysis on Columbia agar; assay type: cell-based; conditions: Streptococcus oralis NCTC11427; 300 mg/l; 18 hours
Enterococcus gellinarum = assay: Substrate hydrolysis on Columbia agar; assay type: cell-based; conditions: Enterococcus gellinarum NCTC 11428; 300 mg/l; 18 hours
[1] = system: Staphylococcus saprophyticus; assay: Substrate hydrolysis on Columbia agar; assay type: cell-based; conditions: 300 mg/l, 18 hours
Salmonella oranienburg = assay: Substrate hydrolysis on Columbia agar; assay type: cell-based; conditions: Salmonella oranienburg SAX 56; 300 mg/l; 18 hours
Enterococcus raffinosis = assay: Substrate hydrolysis on Columbia agar; assay type: cell-based; conditions: Enterococcus raffinosis NCTC 13192; 300 mg/l; 18 hours
Streptococcus gordonii = assay: Substrate hydrolysis on Columbia agar; assay type: cell-based; conditions: Streptococcus gordonii NCTC 7865; 300 mg/l; 18 hours
C. diphtheriae = assay: Substrate hydrolysis on Columbia agar; assay type: cell-based, Corynebacterium diphtheriae; conditions: 300 mg/l, 18 hours
E. cloacae = assay: Substrate hydrolysis on Columbia agar; assay type: cell-based; design: key to the marks not given beside the values; conditions: 300 mg/l, 18 hours
K. pneumoniae = assay: Substrate hydrolysis on Columbia agar; assay type: cell-based; design: key to the marks not given beside the values; conditions: 300 mg/l, 18 hours
[2] = Corynebacterium diphtheria NEQAS

## 3′,4′-dihydroxyflavone-4′-β-D-glucopyranoside sodium salt [DHF-glucoside]
Aeromonas sobria
  Hydrolysis by Gram negative bacteria: −
Enterococcus mundtii
  Hydrolysis by Gram positive organisms: ++
A. calcoaceticus
  Hydrolysis by Gram negative bacteria: −
K. oxytoca; K. oxytoca KOX 1
  Hydrolysis by Gram negative bacteria: +
K. oxytoca; K. oxytoca KOX 2
  Hydrolysis by Gram negative bacteria: +
P. aeruginosa; P. aeruginosa ATCC 10145
  Hydrolysis by Gram negative bacteria: −
P. aeruginosa; P. aeruginosa NCTC 10662
  Hydrolysis by Gram negative bacteria: −
C. diversus; C. diversus CDI 1
  Hydrolysis by Gram negative bacteria: −
C. diversus; C. diversus CDI 2
  Hydrolysis by Gram negative bacteria: −
Enterococcus durans
  Hydrolysis by Gram positive organisms: ++
Gram positive bacteria; Strains of Listeria and enterococci
  colony colour and diffusion: intense black colonies with no diffusion of the black chelate
Gram positive bacteria
  Gram positive bacteria tested that hydrolysed the substrate: 22.5%
Vibrio metschnikovii
  Hydrolysis by Gram negative bacteria: −
A. lwoffii
  Hydrolysis by Gram negative bacteria: −
Salmonella typhi
  Hydrolysis by Gram negative bacteria: −
M. morganii; M. morganii MMO 1
  Hydrolysis by Gram negative bacteria: +
M. morganii; M. morganii MMO 2
  Hydrolysis by Gram negative bacteria: +
M. morganii; M. morganii NCTC 235
  Hydrolysis by Gram negative bacteria: −
Bacillus licusniforms
  Hydrolysis by Gram positive organisms: +
E. coli 0157; E. coli 0157 NCTC 12079
  Hydrolysis by Gram negative bacteria: −
E. coli 0157; E. coli 0157 NCTC 12080
  Hydrolysis by Gram negative bacteria: −
E. coli 0157; E. coli 0157 NCTC 12900
  Hydrolysis by Gram negative bacteria: −
E. coli 0157; E. coli 0157 NCTC 13125
  Hydrolysis by Gram negative bacteria: −
E. coli 0157; E. coli 0157 NCTC 13126
  Hydrolysis by Gram negative bacteria: −
E. coli 0157; E. coli 0157 NCTC 13127
  Hydrolysis by Gram negative bacteria: −
E. coli 0157; E. coli 0157 NCTC 13128
  Hydrolysis by Gram negative bacteria: −
Vibrio cholerae; Vibrio cholera NCTC 6585
  Hydrolysis by Gram negative bacteria: −
Vibrio cholerae; Vibrio cholera NCTC 7270
  Hydrolysis by Gram negative bacteria: −
Vibrio cholerae; Vibrio cholera NCTC 8021
  Hydrolysis by Gram negative bacteria: −
Vibrio cholerae; Vibrio cholera NCTC 10732
  Hydrolysis by Gram negative bacteria: −
Vibrio cholerae; Vibrio cholera NCTC 12945
  Hydrolysis by Gram negative bacteria: −
Vibrio cholerae; Vibrio cholerae NCTC 7254
  Hydrolysis by Gram negative bacteria: −
Vibrio cholerae; Vibrio cholerae NCTC 8042
  Hydrolysis by Gram negative bacteria: −
Vibrio cholerae; Vibrio cholerae NCTC 10255
  Hydrolysis by Gram negative bacteria: −
Vibrio cholerae; Vibrio cholerae NCTC 10954
  Hydrolysis by Gram negative bacteria: −
Streptococcus oralis
  Hydrolysis by Gram positive organisms: −
Enterococcus gellinarum
  Hydrolysis by Gram positive organisms: ++
[1]; Staphylococcus saprophyticus 1
  Hydrolysis by Gram positive organisms: −
[1]; Staphylococcus saprophyticus 2
  Hydrolysis by Gram positive organisms: −
[1]; Staphylococcus saprophyticus 3
  Hydrolysis by Gram positive organisms: −
[1]; Staphylococcus saprophyticus 4
  Hydrolysis by Gram positive organisms: −
[1]; Staphylococcus saprophyticus 5
  Hydrolysis by Gram positive organisms: −
Salmonella oranienburg
  Hydrolysis by Gram negative bacteria: −
Enterococcus raffinosis
  Hydrolysis by Gram positive organisms: ++
Streptococcus gordonii
  Hydrolysis by Gram positive organisms: −
C. diphtheriae; C. diphtheriae NCTC 3987
  Hydrolysis by Gram positive organisms: −
C. diphtheriae; C. diphtheriae NCTC 10356
  Hydrolysis by Gram positive organisms: −
C. diphtheriae; C. diphtheriae NCTC 11397
  Hydrolysis by Gram positive organisms: −
C. diphtheriae; [2]
  Hydrolysis by Gram positive organisms: −

## O=c1cc(-c2ccc(OC3OC(CO)C(O)C3O)c(O)c2)oc2ccccc12 [DHF-riboside, 3′,4′-dihydroxyflavone-4′-β-D-ribofuranoside Sodium Salt]
Aeromonas sobria
  Hydrolysis by Gram negative bacteria: 0
Enterococcus mundtii
  Hydrolysis by Gram positive organisms: +
A. calcoaceticus
  Hydrolysis by Gram negative bacteria: −
K. oxytoca; K. oxytoca KOX 1
  Hydrolysis by Gram negative bacteria: ++
K. oxytoca; K. oxytoca KOX 2
  Hydrolysis by Gram negative bacteria: ++
P. aeruginosa; P. aeruginosa ATCC 10145
  Hydrolysis by Gram negative bacteria: +
P. aeruginosa; P. aeruginosa NCTC 10662
  Hydrolysis by Gram negative bacteria: +
C. diversus; C. diversus CDI 1
  Hydrolysis by Gram negative bacteria: ++
C. diversus; C. diversus CDI 2
  Hydrolysis by Gram negative bacteria: ++
Enterococcus durans
  Hydrolysis by Gram positive organisms: −
Gram positive bacteria
  Gram positive bacteria tested that hydrolysed the substrate: 30.8%
Vibrio metschnikovii
  Hydrolysis by Gram negative bacteria: ++
A. lwoffii
  Hydrolysis by Gram negative bacteria: −
Salmonella typhi
  Hydrolysis by Gram negative bacteria: ++
M. morganii; M. morganii MMO 1
  Hydrolysis by Gram negative bacteria: +
M. morganii; M. morganii MMO 2
  Hydrolysis by Gram negative bacteria: +
M. morganii; M. morganii NCTC 235
  Hydrolysis by Gram negative bacteria: −
Bacillus licusniforms
  Hydrolysis by Gram positive organisms: −
E. cloacae; E. cloacae ECL 1
  Hydrolysis by Gram negative bacteria: ++
E. cloacae; E. cloacae ECL 2
  Hydrolysis by Gram negative bacteria: ++
E. cloacae; E. cloacae ECL 3
  Hydrolysis by Gram negative bacteria: ++
E. cloacae; E. cloacae ECL 4
  Hydrolysis by Gram negative bacteria: ++
E. cloacae; E. cloacae NCTC 11936
  Hydrolysis by Gram negative bacteria: ++
E. coli 0157; E. coli 0157 NCTC 12079
  Hydrolysis by Gram negative bacteria: ++
E. coli 0157; E. coli 0157 NCTC 12080
  Hydrolysis by Gram negative bacteria: ++
E. coli 0157; E. coli 0157 NCTC 12900
  Hydrolysis by Gram negative bacteria: ++
E. coli 0157; E. coli 0157 NCTC 13125
  Hydrolysis by Gram negative bacteria: ++
E. coli 0157; E. coli 0157 NCTC 13126
  Hydrolysis by Gram negative bacteria: ++
E. coli 0157; E. coli 0157 NCTC 13127
  Hydrolysis by Gram negative bacteria: ++
E. coli 0157; E. coli 0157 NCTC 13128
  Hydrolysis by Gram negative bacteria: ++
Vibrio cholerae; Vibrio cholera NCTC 6585
  Hydrolysis by Gram negative bacteria: −
Vibrio cholerae; Vibrio cholera NCTC 7270
  Hydrolysis by Gram negative bacteria: −
Vibrio cholerae; Vibrio cholera NCTC 8021
  Hydrolysis by Gram negative bacteria: −
Vibrio cholerae; Vibrio cholera NCTC 10732
  Hydrolysis by Gram negative bacteria: −
Vibrio cholerae; Vibrio cholera NCTC 12945
  Hydrolysis by Gram negative bacteria: −
Vibrio cholerae; Vibrio cholerae NCTC 7254
  Hydrolysis by Gram negative bacteria: −
Vibrio cholerae; Vibrio cholerae NCTC 8042
  Hydrolysis by Gram negative bacteria: −
Vibrio cholerae; Vibrio cholerae NCTC 10255
  Hydrolysis by Gram negative bacteria: −
Vibrio cholerae; Vibrio cholerae NCTC 10954
  Hydrolysis by Gram negative bacteria: −
Streptococcus oralis
  Hydrolysis by Gram positive organisms: −
Enterococcus gellinarum
  Hydrolysis by Gram positive organisms: +
K. pneumoniae; K. pneumoniae KPN 2
  Hydrolysis by Gram negative bacteria: ++
K. pneumoniae; K. pneumoniae KPN 3
  Hydrolysis by Gram negative bacteria: ++
K. pneumoniae; K. pneumoniae KPN 4
  Hydrolysis by Gram negative bacteria: ++
K. pneumoniae; K. pneumoniae NCTC 10896
  Hydrolysis by Gram negative bacteria: ++
[1]; Staphylococcus saprophyticus 1
  Hydrolysis by Gram positive organisms: ++
[1]; Staphylococcus saprophyticus 2
  Hydrolysis by Gram positive organisms: ++
[1]; Staphylococcus saprophyticus 3
  Hydrolysis by Gram positive organisms: ++
[1]; Staphylococcus saprophyticus 4
  Hydrolysis by Gram positive organisms: ++
[1]; Staphylococcus saprophyticus 5
  Hydrolysis by Gram positive organisms: ++
Salmonella oranienburg
  Hydrolysis by Gram negative bacteria: ++
Enterococcus raffinosis
  Hydrolysis by Gram positive organisms: +
Streptococcus gordonii
  Hydrolysis by Gram positive organisms: −
C. diphtheriae; C. diphtheriae NCTC 3987
  Hydrolysis by Gram positive organisms: +
C. diphtheriae; C. diphtheriae NCTC 10356
  Hydrolysis by Gram positive organisms: ++
C. diphtheriae; C. diphtheriae NCTC 11397
  Hydrolysis by Gram positive organisms: ++
C. diphtheriae; [2]
  Hydrolysis by Gram positive organisms: ++
